According to ChEMBL document CHEMBL3286254, “Structure-guided discovery of 1,3,5 tri-substituted benzenes as potent and selective matriptase inhibitors exhibiting in vivo antitumor efficacy” (Bioorg Med Chem, 2014):

Legend:
[1] = molecular target: Coagulation factor X (Bos taurus, UniProt P00743); assay: Inhibition of bovine plasma factor 10a using CH3OCO-D-CHA-Gly-Arg-pNA.AcoH substrate
[2] = molecular target: Prothrombin (Homo sapiens, UniProt P00734); assay: Inhibition of human thrombin using Boc-Gln-Ala-Arg-7-amido-4-methyl coumarin hydrobromide
[3] = molecular target: T1, Suppressor of tumorigenicity 14 protein (Homo sapiens, UniProt Q9Y5Y6); assay: Inhibition of recombinant matriptase (unknown origin) using Boc-Gln-Ala-Arg-7-amido-4-methyl coumarin hydrobromide
T1 sequence (Q9Y5Y6 whole entry): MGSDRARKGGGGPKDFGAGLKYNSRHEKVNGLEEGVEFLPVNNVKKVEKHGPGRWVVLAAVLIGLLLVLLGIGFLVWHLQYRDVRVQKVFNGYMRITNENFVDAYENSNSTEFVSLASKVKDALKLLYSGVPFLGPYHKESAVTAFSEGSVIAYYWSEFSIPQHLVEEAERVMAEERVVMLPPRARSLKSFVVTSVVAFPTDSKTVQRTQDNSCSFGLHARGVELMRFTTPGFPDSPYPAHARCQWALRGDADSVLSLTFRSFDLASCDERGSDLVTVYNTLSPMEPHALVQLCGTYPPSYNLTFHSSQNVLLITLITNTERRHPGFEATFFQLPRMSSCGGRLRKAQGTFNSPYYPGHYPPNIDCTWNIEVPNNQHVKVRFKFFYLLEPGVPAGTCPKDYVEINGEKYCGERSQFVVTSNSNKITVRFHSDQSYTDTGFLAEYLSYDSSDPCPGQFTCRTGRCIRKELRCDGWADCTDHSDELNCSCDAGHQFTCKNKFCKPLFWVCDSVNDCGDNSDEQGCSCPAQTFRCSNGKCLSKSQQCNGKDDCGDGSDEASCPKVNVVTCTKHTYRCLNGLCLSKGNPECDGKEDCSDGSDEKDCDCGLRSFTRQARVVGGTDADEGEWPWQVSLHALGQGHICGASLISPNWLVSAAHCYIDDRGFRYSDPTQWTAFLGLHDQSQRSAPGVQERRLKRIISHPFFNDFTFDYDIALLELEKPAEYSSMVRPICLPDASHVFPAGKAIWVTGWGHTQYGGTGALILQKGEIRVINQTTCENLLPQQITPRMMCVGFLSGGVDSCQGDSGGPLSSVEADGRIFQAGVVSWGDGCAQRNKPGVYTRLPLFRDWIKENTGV

[4] = molecular target: Trypsin (Homo sapiens, UniProt P07477+P07478+P35030); assay: Inhibition of human pancreas Trypsin using Boc-Gln-Ala-Arg-7-amido-4-methyl coumarin hydrobromide; format: protein assay
[5] = test system: DU-145; assay: Antiinvasion activity in human DU145 cells assessed as inhibition of FBS-induced cell invaded to lower surface at 10 uM for 3 days by matrigel assay; format: functional; settings: DU-145, 72 h
[6] = test system: PC-3; assay: Cytotoxicity against human PC3 cells assessed as cell survival at 10 uM after 72 hrs by calcein AM assay; format: functional; settings: PC-3, 72 h, read-out: Activity
[7] = test system: DU-145; assay: Cytotoxicity against human DU145 cells assessed as cell survival at 10 uM after 72 hrs by calcein AM assay; format: functional; settings: DU-145, 72 h, read-out: Activity
[8] = Antiinvasion activity in human LNCaP-C42B4 cells assessed as inhibition of FBS-induced cell invaded to lower surface at 10 uM for 3 days by matrigel assay; format: functional; settings: LNCaP-C42B4, 72 h
[9] = Cytotoxicity against human LNCaP-C42B4 cells assessed as cell survival at 10 uM after 72 hrs by calcein AM assay; format: functional; settings: LNCaP-C42B4, 72 h, read-out: Activity
[10] = molecular target: Plasminogen (Homo sapiens, UniProt P00747); assay: Inhibition of human plasmin using pyroGlu-Phe-Lys-pNA.HCl
Chain of Plasminogen (P00747 97-580 limits assumed): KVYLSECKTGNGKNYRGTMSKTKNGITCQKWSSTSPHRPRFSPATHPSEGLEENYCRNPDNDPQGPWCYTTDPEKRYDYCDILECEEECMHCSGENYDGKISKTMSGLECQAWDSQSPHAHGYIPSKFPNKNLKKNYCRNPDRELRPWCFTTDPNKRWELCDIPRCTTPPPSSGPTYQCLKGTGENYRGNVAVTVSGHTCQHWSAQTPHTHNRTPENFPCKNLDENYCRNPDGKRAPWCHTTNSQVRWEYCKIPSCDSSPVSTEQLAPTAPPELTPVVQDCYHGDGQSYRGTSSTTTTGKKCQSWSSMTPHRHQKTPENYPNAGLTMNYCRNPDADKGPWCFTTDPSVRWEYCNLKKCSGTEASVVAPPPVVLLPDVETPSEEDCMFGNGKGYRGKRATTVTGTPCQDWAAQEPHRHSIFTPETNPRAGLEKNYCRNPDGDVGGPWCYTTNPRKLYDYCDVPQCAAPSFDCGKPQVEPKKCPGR
Chain of Plasminogen (P00747 581-810 limits assumed): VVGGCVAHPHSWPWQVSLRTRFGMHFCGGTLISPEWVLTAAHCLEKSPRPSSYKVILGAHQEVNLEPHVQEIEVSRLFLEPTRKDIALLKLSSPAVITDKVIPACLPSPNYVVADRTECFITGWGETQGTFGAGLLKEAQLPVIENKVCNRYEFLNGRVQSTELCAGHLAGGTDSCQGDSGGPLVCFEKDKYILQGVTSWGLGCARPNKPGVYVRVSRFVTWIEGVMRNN

[11] = test system: PC-3; assay: Antiinvasion activity in human PC3 cells assessed as inhibition of FBS-induced cell invaded to lower surface at 10 uM for 3 days by matrigel assay; format: functional; settings: PC-3, 72 h
[12] = test system: DU-145; assay: Cytotoxicity against human DU145 cells assessed as inhibition of number of colonies formed in soft agar measured on day 8; format: functional, cell-based; settings: DU-145, 192 h
[13] = test system: PC-3; assay: Cytotoxicity against human PC3 cells assessed as inhibition of number of colonies formed in soft agar measured on day 8; format: functional, cell-based; settings: PC-3, 192 h
[14] = Cytotoxicity against human LNCaP-C42B4 cells assessed as inhibition of number of colonies formed in soft agar measured on day 8; format: functional, cell-based; settings: LNCaP-C42B4, 192 h

Chain of Coagulation factor X (P00743 41-180 limits assumed): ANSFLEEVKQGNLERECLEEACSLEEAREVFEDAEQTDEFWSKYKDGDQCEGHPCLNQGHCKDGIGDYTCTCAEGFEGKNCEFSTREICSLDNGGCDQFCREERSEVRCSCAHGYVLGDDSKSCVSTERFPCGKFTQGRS
Chain of Coagulation factor X (P00743 234-492 limits assumed): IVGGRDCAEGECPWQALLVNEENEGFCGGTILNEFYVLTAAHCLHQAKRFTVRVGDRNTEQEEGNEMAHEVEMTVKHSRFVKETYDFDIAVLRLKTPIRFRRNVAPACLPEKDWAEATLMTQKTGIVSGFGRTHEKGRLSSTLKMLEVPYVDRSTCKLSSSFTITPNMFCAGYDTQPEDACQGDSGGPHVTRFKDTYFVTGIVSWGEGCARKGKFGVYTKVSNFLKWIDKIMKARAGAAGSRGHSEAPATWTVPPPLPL

N=C(N)c1ccc(Oc2cc(Oc3ccc(C(=N)N)cc3)cc(C(=O)NC3CCC(O)CC3)c2)cc1 (stereo unspecified)
Ki [1]: 0.538 µM
Ki [2]: 1.24 µM
Ki [3]: 301 nM

N=C(N)c1ccc(Oc2cc(Oc3ccc(C(=N)N)cc3)cc(C(=O)N3CCC(C(=O)O)CC3)c2)cc1
Ki [4]: 0.718 µM

N=C(N)c1ccc(Oc2cc(Oc3ccc(C(=N)N)cc3)cc(C(=O)N3CCC4CCCCC4C3)c2)cc1 (stereo unspecified)
inhibition at 10 µM [5]: 45%
Ki [4]: 0.232 µM
viability at 10 µM [6]: 87%
viability at 10 µM [7]: 78%
Ki [1]: 0.336 µM
inhibition at 10 µM [8]: 15%
viability at 10 µM [9]: 79%
Ki [10]: 1.53 µM
inhibition at 10 µM [11]: 47%
Ki [2]: 0.501 µM
Ki [3]: 305 nM

N=C(N)c1ccc(Oc2cc(OCc3ccc(Cl)cc3)cc(C(=O)N[C@H]3CC[C@H](N)CC3)c2)cc1
Ki [3]: 470 nM

N=C(N)c1cccc(C[C@@H](NS(=O)(=O)c2cccc(C3CCC(N)=NC3)c2)C(=O)N2CCC(CCN)CC2)c1 (stereo partly specified)
Ki [3]: 0.08 nM

CC1CCC(NC(=O)c2cc(Oc3ccc(C(=N)N)cc3)cc(Oc3ccc(C(=N)N)cc3)c2)CC1 (stereo unspecified)
Ki [4]: 0.253 µM
Ki [1]: 0.282 µM
Ki [10]: 3.61 µM
Ki [2]: 0.744 µM
Ki [3]: 770 nM

N=C(N)c1ccc(Oc2cc(Oc3ccc(C(=N)N)cc3)cc(C(=O)NCC3CCCCC3)c2)cc1
Ki [4]: 0.571 µM
Ki [1]: 0.073 µM
Ki [10]: 2.16 µM
Ki [2]: 2.41 µM
Ki [3]: 411 nM

N=C(N)c1ccc(Oc2cc(Oc3ccc(C(=N)N)cc3)cc(C(=O)N3CCc4ccccc4C3)c2)cc1
Ki [4]: 0.225 µM
Ki [1]: 0.273 µM
Ki [10]: 3.85 µM
Ki [2]: 1.56 µM
Ki [3]: 730 nM

N=C(N)c1ccc(Oc2cc(Oc3ccc(C(=N)N)cc3)cc(C(=O)N3CCC(CCN)CC3)c2)cc1
inhibition at 10 µM [5]: 62%
Ki [4]: 0.545 µM
viability at 10 µM [6]: 93%
viability at 10 µM [7]: 100%
Ki [1]: 1.29 µM
inhibition at 10 µM [8]: 61%
viability at 10 µM [9]: 100%
inhibition at 10 µM [11]: 54%
Ki [2]: 4.06 µM
Ki [3]: 94 nM

N=C(N)c1ccc(Oc2cc(Oc3ccc(NC(=O)CCN)cc3)cc(C(=O)N[C@H]3CC[C@H](N)CC3)c2)cc1
Ki [4]: > 3 µM
Ki [1]: 3.58 µM
Ki [2]: 3.25 µM
Ki [3]: 116 nM

N=C(N)c1ccc(Oc2cc(NS(=O)(=O)c3ccc(F)cc3)cc(Oc3ccc(C(=N)N)cc3)c2)cc1
Ki [4]: 1.388 µM
Ki [1]: 1.16 µM
Ki [2]: 4.85 µM
Ki [3]: 1980 nM

N=C(N)c1ccc(Oc2cc(Oc3ccc(CN)cc3)cc(C(=O)N[C@H]3CC[C@H](N)CC3)c2)cc1
inhibition at 10 µM [5]: 49%
EC50 [12]: 0.324 µM
Ki [4]: 1.541 µM
viability at 10 µM [6]: 63%
viability at 10 µM [7]: 90%
EC50 [13]: 0.485 µM
inhibition at 10 µM [8]: 59%
viability at 10 µM [9]: 100%
EC50 [14]: 1.7 µM
inhibition at 10 µM [11]: 54%
Ki [2]: 3.13 µM
Ki [3]: 40 nM

N=C(N)c1ccc(COc2cc(Oc3ccc(C(=N)N)cc3)cc(C(=O)N[C@H]3CC[C@H](N)CC3)c2)cc1
Ki [4]: 1.868 µM
Ki [2]: 2.81 µM
Ki [3]: 10 nM

N=C(N)c1ccc(Oc2ccc(Oc3ccc(C(=N)N)cc3)cc2)cc1
Ki [3]: 200 nM

NCc1ccc(Oc2cc(Oc3ccc(CN)cc3)cc(C(=O)N[C@H]3CC[C@H](N)CC3)c2)cc1
Ki [4]: 3.85 µM
Ki [3]: 1700 nM

N=C(N)c1ccc(Oc2cc(Oc3ccc(N)cc3)cc(C(=O)N[C@H]3CC[C@H](N)CC3)c2)cc1
Ki [4]: > 3 µM
Ki [3]: 1130 nM

N=C(N)c1ccc(Oc2cc(Oc3ccc(C(=N)N)cc3)cc(C(=O)NC3CCN(CCO)CC3)c2)cc1
Ki [1]: 0.64 µM
Ki [2]: 1.78 µM
Ki [3]: 204 nM

N=C(N)c1ccc(Oc2cc(Oc3ccc(C(N)=O)cc3)cc(C(=O)N[C@H]3CC[C@H](N)CC3)c2)cc1
Ki [4]: > 3 µM
Ki [2]: 3.54 µM
Ki [3]: 824 nM

CC1CCC(C(=O)Nc2cc(Oc3ccc(C(=N)N)cc3)cc(Oc3ccc(C(=N)N)cc3)c2)CC1 (stereo unspecified)
Ki [4]: 0.516 µM
Ki [1]: 0.743 µM
Ki [10]: 1.2 µM
Ki [2]: 2.34 µM
Ki [3]: 545 nM

N=C(N)c1ccc(Oc2cc(N)cc(Oc3ccc(C(=N)N)cc3)c2)cc1
Ki [4]: 0.534 µM
Ki [1]: 0.851 µM
Ki [2]: 2.82 µM
Ki [3]: 1060 nM

N=C(N)c1ccc(COc2cc(OCc3ccc(C(=N)N)cc3)cc(C(=O)N[C@H]3CC[C@H](N)CC3)c2)cc1
Ki [4]: 1.022 µM
Ki [1]: 1.56 µM
Ki [2]: 1.64 µM
Ki [3]: 23 nM

N=C(N)c1ccc(Oc2cc(Oc3ccc(C(=N)N)cc3)cc(C(=O)NC3CCN(CCCN)CC3)c2)cc1
Ki [4]: 1.035 µM
Ki [1]: 0.415 µM
Ki [2]: 1.28 µM
Ki [3]: 141 nM

N=C(N)c1ccc(Oc2cc(Oc3ccc(C(=N)N)cc3)cc(C(N)=O)c2)cc1
Ki [4]: 0.64 µM
Ki [1]: 0.785 µM
Ki [2]: 1.06 µM
Ki [3]: 1620 nM

N=C(N)c1ccc(Oc2cc(NC(=O)C3CCN(CCO)CC3)cc(Oc3ccc(C(=N)N)cc3)c2)cc1
Ki [4]: 1.468 µM
Ki [1]: 1.16 µM
Ki [2]: 4.2 µM
Ki [3]: 18 nM

N=C(N)c1cccc(COc2cc(OCc3cccc(C(=N)N)c3)cc(C(=O)N[C@H]3CC[C@H](N)CC3)c2)c1
Ki [4]: 0.901 µM
Ki [1]: 0.157 µM
Ki [2]: 1.29 µM
Ki [3]: 3 nM

N=C(N)c1ccc(Oc2cc(NS(=O)(=O)c3ccc4ccccc4c3)cc(Oc3ccc(C(=N)N)cc3)c2)cc1
Ki [4]: 3 µM
Ki [1]: 0.876 µM
Ki [3]: 1790 nM

N=C(N)c1ccc(Oc2cc(Oc3ccc(C(=N)N)cc3)cc(C(=O)Nc3ccc(F)cc3)c2)cc1
Ki [4]: 1.636 µM
Ki [1]: 1.88 µM
Ki [10]: 2.67 µM
Ki [2]: 2.1 µM
Ki [3]: 591 nM

N=C(N)c1ccc(Oc2cc(OCc3cccc(C(=N)N)c3)cc(C(=O)N[C@H]3CC[C@H](N)CC3)c2)cc1
Ki [4]: 1.541 µM
Ki [1]: 1.14 µM
Ki [2]: 2.68 µM
Ki [3]: 6 nM

N=C(N)c1ccc(Oc2cc(OCc3ccc(Br)cc3)cc(C(=O)N[C@H]3CC[C@H](N)CC3)c2)cc1
inhibition at 10 µM [5]: 61%
Ki [4]: 2.064 µM
viability at 10 µM [6]: 93%
viability at 10 µM [7]: 78%
Ki [1]: 2.09 µM
inhibition at 10 µM [8]: 76%
viability at 10 µM [9]: 65%
inhibition at 10 µM [11]: 51%
Ki [2]: 3.97 µM
Ki [3]: 260 nM

N=C(N)c1ccc(Oc2cc(NC(=O)C3CCN(CCN)CC3)cc(Oc3ccc(C(=N)N)cc3)c2)cc1
Ki [4]: 1.338 µM
Ki [1]: 0.062 µM
Ki [10]: 2.41 µM
Ki [2]: 2.53 µM
Ki [3]: 18 nM

N=C(N)c1ccc(Oc2cc(Oc3ccc(C(=N)N)cc3)cc(C(=O)NC3CCCCC3)c2)cc1
Ki [4]: 0.179 µM
Ki [1]: 0.19 µM
Ki [10]: 2.39 µM
Ki [2]: 1.64 µM
Ki [3]: 592 nM

N=C(N)c1ccc(Oc2cc(Oc3ccc(N)nc3)cc(C(=O)N[C@H]3CC[C@H](N)CC3)c2)cc1
Ki [4]: > 3 µM
Ki [3]: 2030 nM

N=C(N)c1ccc(Oc2cc(OCc3ccc(Br)nc3)cc(C(=O)N[C@H]3CC[C@H](N)CC3)c2)cc1
Ki [4]: > 3 µM
Ki [1]: 3.68 µM
Ki [2]: 3.98 µM
Ki [3]: 793 nM

N=C(N)c1ccc(Oc2cc(Oc3ccc(C(=N)N)cc3)cc(C(=O)NCC3CCC(O)CC3)c2)cc1 (stereo unspecified)
Ki [4]: 1.55 µM
Ki [1]: 0.92 µM
Ki [2]: 2.85 µM
Ki [3]: 1180 nM

CCOC(=O)N1CCC(NC(=O)c2cc(Oc3ccc(C(=N)N)cc3)cc(Oc3ccc(C(=N)N)cc3)c2)CC1
Ki [4]: 0.471 µM
Ki [1]: 1.03 µM
Ki [10]: 2.63 µM
Ki [3]: 1850 nM
